Assay [1] concerns HCV replicon (strain 1b) in HUH-7 cells. Kind of assay: HCV replicon FRET assay. It counts as cell-based, Hepatitis C virus. The conditions noted are these: activity range class. On the technique in general: In antiviral work, replicon cells carry a viral genome segment that copies itself.
The target in assay [2] is T1, HCV NS3/4A protease complex, BMS strain (UniProt P27958, species not given/STRAIN_BMS).
T1 construct: other: NS3/4A BMS strain; activity range class; numeric values, unit not given; said of H77 and J4L6S; fused on or other part: A three-lysine solubilising tail at the C-terminus of NS4A; A His tag is implied by the pET21b vector and Ni-NTA purification; Both are printed for the H77 and J4L6S constructs and apply to BMS by inference
T1 sequence (P27958 1027-1657, change not shown, one chain of several): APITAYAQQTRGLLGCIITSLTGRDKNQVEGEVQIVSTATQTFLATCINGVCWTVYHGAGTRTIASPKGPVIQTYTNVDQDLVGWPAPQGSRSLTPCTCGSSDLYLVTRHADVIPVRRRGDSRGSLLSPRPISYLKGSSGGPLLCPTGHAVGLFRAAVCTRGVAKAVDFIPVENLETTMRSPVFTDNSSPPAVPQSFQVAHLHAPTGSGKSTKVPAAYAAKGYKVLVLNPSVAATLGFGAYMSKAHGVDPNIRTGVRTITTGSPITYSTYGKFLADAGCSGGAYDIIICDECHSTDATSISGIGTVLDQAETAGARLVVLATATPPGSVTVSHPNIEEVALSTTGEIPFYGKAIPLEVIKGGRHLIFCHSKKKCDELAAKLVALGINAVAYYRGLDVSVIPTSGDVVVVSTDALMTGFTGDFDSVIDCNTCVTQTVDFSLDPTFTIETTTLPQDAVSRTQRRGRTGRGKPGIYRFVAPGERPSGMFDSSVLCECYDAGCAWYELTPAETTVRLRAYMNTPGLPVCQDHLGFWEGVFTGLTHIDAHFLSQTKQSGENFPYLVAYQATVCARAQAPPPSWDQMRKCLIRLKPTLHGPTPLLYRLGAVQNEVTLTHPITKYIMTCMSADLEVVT
Briefly: FRET peptide assay to monitor HCV NS3/4A proteolytic activity (BMS strain). It counts as biochemical, Hepatitis C virus (genotype 1a). The conditions noted are these: read-out: HCV Protease (IC50); NS3/4A BMS strain; activity range class. The procedure, abridged: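 Purified recombinant NS3/4A complex from genotype 1a BMS strain, 2-3 nM final, with RET S1 EDANS/DABCYL depsipeptide substrate at 2 μM final in HEPES pH 7.5, NaCl, Triton, glycerol, βME. Cleavage followed in real time by fluorescence. For high-potency compounds: 50 μg/ml BSA added, protease lowered to 300 pM.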

[3] abbreviates: Hepatitis C virus, Huh-7, read-out: HCV Pro Replicon (EC50), HCV replicon cell assay.
The mark [4] stands for this setting: read-out: HCV Pro Replicon (EC50), HCV replicon cell assay.

Where two headings read alike, the source gives them in different places. Some results are limits rather than exact numbers.

A word on the EC50: it is the concentration that produces a half-maximal response. Broadly, the IC50 is the concentration at which inhibition is half-maximal. Regarding `C=C[C@@H]1C[C@]1(NC(=O)[C@@H]1C[C@@H](Oc2ncc(OC)c3ccc(Cl)cc23)CN1C(=O)[C@H](Nc1cccc(S(=O)(=O)NC(C)(C)C)c1)C(C)(C)C)C(=O)NS(=O)(=O)C1CC1` [206 second isomer, N-(3-(tert-butylsulfamoyl)phenyl)-3-methyl-D-valyl-(4R)-4-((7-chloro-4-methoxy-1-isoquinolinyl)oxy)-N-((1R,2S)-1-((cyclopropylsulfonyl)carbamoyl)-2-vinylcyclopropyl)-L-prolinamide], in assay [1] (setting [3]), the 50% effective concentration (EC50) was greater than 1000 nM. Besides, in assay [2], the IC50 was greater than 200 nM.

Regarding `C=C[C@@H]1C[C@]1(NC(=O)[C@@H]1C[C@@H](Oc2ncc(OC)c3ccc(Cl)cc23)CN1C(=O)C(Nc1ccc(C(=O)OC(C)(C)C)cc1)C(C)(C)C)C(=O)NS(=O)(=O)C1CC1` (stereo partly drawn) [204 second isomer], the EC50 in assay [1] (setting [4]) was greater than 1000 nM. In addition, in assay [2], the IC50 was greater than 200 nM.

For `C=C[C@@H]1C[C@]1(NC(=O)[C@@H]1C[C@@H](Oc2ncc(OC)c3ccc(Cl)cc23)CN1C(=O)[C@H](Nc1cccc(S(=O)(=O)N(C)C)c1)C(C)(C)C)C(=O)NS(=O)(=O)C1CC1` [219 second isomer, N-(3-(dimethylsulfamoyl)phenyl)-3-methyl-D-valyl-(4R)-4-((7-chloro-4-methoxy-1-isoquinolinyl)oxy)-N-((1R,2S)-1-((cyclopropylsulfonyl)carbamoyl)-2-vinylcyclopropyl)-L-prolinamide], in assay [1] (setting [3]), the EC50 fell in the range of 3 to 100 nM. The IC50 in assay [2] lay within 0.6 to 20 nM.

As for `C=C[C@@H]1C[C@]1(NC(=O)[C@@H]1C[C@@H](Oc2ncc(OC)c3ccc(Cl)cc23)CN1C(=O)C(Nc1cccc(C)n1)C(C)(C)C)C(=O)NS(=O)(=O)C1CC1` (single isomer, unassigned) [28 second isomer], the EC50 in assay [1] (setting [4]) fell in the range of 100 to 1000 nM. In addition, the IC50 in assay [2] was 20 to 200 nM.

Take `C=C[C@@H]1C[C@]1(NC(=O)[C@@H]1C[C@@H](Oc2ncc(OC)c3ccc(Cl)cc23)CN1C(=O)[C@H](Nc1ccc(F)c(F)c1)C(C)(C)C)C(=O)NS(=O)(=O)C1CC1` [220 second isomer, N-(3,4-difluorophenyl)-3-methyl-D-valyl-(4R)-4-((7-chloro-4-methoxy-1-isoquinolinyl)oxy)-N-((1R,2S)-1-((cyclopropylsulfonyl)carbamoyl)-2-vinylcyclopropyl)-L-prolinamide]: the EC50 in assay [1] (setting [3]) is 100 to 1000 nM. Moreover, the IC50 in assay [2] was greater than 200 nM.

Regarding `C=C[C@@H]1C[C@]1(NC(=O)[C@@H]1C[C@@H](Oc2ncc(OC)c3ccc(Cl)cc23)CN1C(=O)C(Nc1cccc(C(=O)NC)c1)C(C)(C)C)C(=O)NS(=O)(=O)C1CC1` (stereo partly shown) [Compound 202A], the EC50 in assay [1] (setting [3]) fell in the range of 3 to 100 nM. In assay [2], the IC50 fell in the range of 0.6 to 20 nM.

Consider `C=C[C@@H]1C[C@]1(NC(=O)[C@@H]1C[C@@H](Oc2ncc(OC)c3ccc(Cl)cc23)CN1C(=O)[C@H](Nc1cccc(C(=O)OC)c1)C(C)(C)C)C(=O)NS(=O)(=O)C1CC1` [232 second isomer, N-(3-(methoxycarbonyl)phenyl)-3-methyl-D-valyl-(4R)-4-((7-chloro-4-methoxy-1-isoquinolinyl)oxy)-N-((1R,2S)-1-((cyclopropylsulfonyl)carbamoyl)-2-vinylcyclopropyl)-L-prolinamide], for which, in assay [1] (setting [3]), the EC50 lay in the range of 3 to 100 nM. Besides, the IC50 in assay [2] lay in the range of 20 to 200 nM.

Regarding `C=C[C@@H]1C[C@]1(NC(=O)[C@@H]1C[C@@H](Oc2nccc3cc(OC)ccc23)CN1C(=O)C(Nc1ccc(C(F)(F)F)cn1)C(C)C)C(=O)NS(=O)(=O)C1CC1` (single isomer, unassigned) [Compound 2], in assay [1] (setting [3]), the EC50 lay in the range of 100 to 1000 nM. Also, in assay [2], the IC50 lay within 20 to 200 nM.

With `C=C[C@@H]1C[C@]1(NC(=O)[C@@H]1C[C@@H](Oc2nc3c(c4cc(OC)ccc24)OCCN3C)CN1C(=O)[C@H](Nc1ccc(F)c(F)c1)C(C)(C)C)C(=O)NS(=O)(=O)C1CC1` [235 second isomer, N-(3,4-difluorophenyl)-3-methyl-D-valyl-(4R)—N-((1R,2S)-1-((cyclopropylsulfonyl)carbamoyl)-2-vinylcyclopropyl)-4-((9-methoxy-4-methyl-3,4-dihydro-2H-[1,4]oxazino[3,2-c]isoquinolin-6-yl)oxy)-L-prolinamide], the EC50 in assay [1] (setting [3]) is 3 to 100 nM. The 50% inhibitory concentration (IC50) in assay [2] fell in the range of 0.6 to 20 nM.

Take `C=C[C@@H]1C[C@]1(NC(=O)[C@@H]1C[C@@H](Oc2nccc3cc(OC)ccc23)CN1C(=O)[C@@H](Nc1nc(OC)nc(OC)n1)C(C)C)C(=O)NS(=O)(=O)C1CC1` [Compound 4, N-(4,6-dimethoxy-1,3,5-triazin-2-yl)valyl-(4R)—N-((1R,2S)-1-((cyclopropylsulfonyl)carbamoyl)-2-vinylcyclopropyl)-4-((6-methoxy-1-isoquinolinyl)oxy)-L-prolinamide]: in assay [1] (setting [3]), the EC50 was greater than 1000 nM. Also, the IC50 in assay [2] lay within 20 to 200 nM.

Regarding `C=C[C@@H]1C[C@]1(NC(=O)[C@@H]1C[C@@H](Oc2ncc(OC)c3ccc(Cl)cc23)CN1C(=O)[C@H](Nc1ccc(C#N)cc1)C(C)(C)C)C(=O)NS(=O)(=O)C1CC1` [205 second isomer, N-(4-cyanophenyl)-3-methyl-D-valyl-(4R)-4-((7-chloro-4-methoxy-1-isoquinolinyl)oxy)-N-((1R,2S)-1-((cyclopropylsulfonyl)carbamoyl)-2-vinylcyclopropyl)-L-prolinamide], the half-maximal effective concentration (EC50) in assay [1] (setting [3]) is 3 to 100 nM. For the same compound, the IC50 in assay [2] was greater than 200 nM.

Turning to `C=C[C@@H]1C[C@]1(NC(=O)[C@@H]1C[C@@H](Oc2nccc3cc(OC)ccc23)CN1C(=O)[C@@H](Nc1cc(C)cc(C)n1)C(C)(C)C)C(=O)NS(=O)(=O)C1CC1` [14 first isomer, N-(4,6-dimethyl-2-pyridinyl)-3-methyl-L-valyl-(4R)—N-((1R,2S)-1-((cyclopropylsulfonyl)carbamoyl)-2-vinylcyclopropyl)-4-((6-methoxy-1-isoquinolinyl)oxy)-L-prolinamide], the EC50 in assay [1] (setting [3]) lay in the range of 3 to 100 nM. Moreover, the IC50 in assay [2] was in the range of 0.6 to 20 nM.

For `C=C[C@@H]1C[C@]1(NC(=O)[C@@H]1C[C@@H](Oc2ncc(OC)c3ccc(Cl)cc23)CN1C(=O)[C@H](Nc1cccc(C(=O)N(C)C)c1)C(C)(C)C)C(=O)NS(=O)(=O)C1CC1` [218 second isomer, N-(3-(dimethylcarbamoyl)phenyl)-3-methyl-D-valyl-(4R)-4-((7-chloro-4-methoxy-1-isoquinolinyl)oxy)-N-((1R,2S)-1-((cyclopropylsulfonyl)carbamoyl)-2-vinylcyclopropyl)-L-prolinamide], in assay [1] (setting [3]), the EC50 was greater than 1000 nM. In addition, the IC50 in assay [2] is greater than 200 nM.

With `C=C[C@@H]1C[C@]1(NC(=O)[C@@H]1C[C@@H](Oc2ncc(OC)c3ccc(Cl)cc23)CN1C(=O)C(Nc1cc(C)c([N+](=O)[O-])cn1)C(C)(C)C)C(=O)NS(=O)(=O)C1CC1` (stereo partly drawn) [Compound 23, 3-methyl-N-(4-methyl-5-nitro-2-pyridinyl)valyl-(4R)-4-((7-chloro-4-methoxy-1-isoquinolinyl)oxy)-N-((1R,2S)-1-((cyclopropylsulfonl)carbamoyl)-2-vinylcyclopropyl)-L-prolinamide], the EC50 in assay [1] (setting [3]) fell in the range of 3 to 100 nM. Besides, the IC50 in assay [2] fell in the range of 0.6 to 20 nM.

The values are drawn from patent US7772180B2, “Hepatitis C virus inhibitors” (Bristol-Myers Squibb Company, priority 2006, dated 2010).
